Results published in paper PMC11811690 (Angewandte Chemie (International Ed. in English), 2024).
Converted amounts (≈) assume the structure as drawn. Read-outs that look alike come from different tables or passages of the source.

Legend:
Experiment in all cases: microbe, parasite or virus in culture
[1] = test system: M. tuberculosis H37Rv poly-g-GFP; type: cell-based; settings: for IC90: Mycobacterium tuberculosis, H37RV, 240 h, read-out: IC90 Mtb H37Rv-poly-g-GFP, fluorescence read-out
C. difficile 630 = type: cell-based, Clostridioides difficile
[2] = test system: M. tuberculosis H37Rv poly-g-GFP; type: cell-based; settings: Mycobacterium tuberculosis, 336 h, read-out: MIC Mtb H37Rv-poly-g-GFP, turbidity read-out
[3] = concentration for 90 % inhibition of fluorescence as proxy for growth inhibition, 10 days, 37 °C
[4] = Clostridioides difficile, C. difficile 630, anaerobic, overnight, growth suppressed to OD600 < 0.15, read-out: MIC C. difficile
[5] = 14 days, 37 °C, turbidity by eye

Row | SMILES | IC90 [1, 3] [µg/mL] | MIC (C. difficile 630; [4]) [µg/mL] | IC90 [1] [µg/mL] | other results
1 | CC[C@H]1/C=C(\C)[C@@H](O)C/C=C/C=C(\CNc2cccc(CNC(=O)CCC(=O)O)c2)C(=O)O[C@H]([C@@H](C)O)C/C=C(C)/C=C(\C)[C@@H]1O[C@@H]1OC(C)(C)[C@@H](OC(=O)C(C)C)[C@H](O)[C@@H]1O [compound 28] | > 64 | 32 (≈ 36.8 µM) |  | 
2 | CC[C@H]1/C=C(\C)[C@@H](O)C/C=C/C=C(\CN2CCN(c3ccncc3)CC2)C(=O)O[C@H]([C@@H](C)O)C/C=C(C)/C=C(\C)[C@@H]1O[C@@H]1OC(C)(C)[C@@H](OC(=O)C(C)C)[C@H](O)[C@@H]1O [compound 3] |  |  | 16 (≈ 19.8 µM) | 
3 | CC[C@H]1/C=C(\C)[C@@H](O)C/C=C/C=C(\CNCc2nc3ccccc3s2)C(=O)O[C@H]([C@@H](C)O)C/C=C(C)/C=C(\C)[C@@H]1O[C@@H]1OC(C)(C)[C@@H](OC(=O)C(C)C)[C@H](O)[C@@H]1O [compound 14] |  | > 32 | 16 (≈ 19.7 µM) | 
4 | CC[C@H]1/C=C(\C)[C@@H](O)C/C=C/C=C(\CNc2ccc(C#N)cn2)C(=O)O[C@H]([C@@H](C)O)C/C=C(C)/C=C(\C)[C@@H]1O[C@@H]1OC(C)(C)[C@@H](OC(=O)C(C)C)[C@H](O)[C@@H]1O [compound 25] | 16 (≈ 20.9 µM) |  |  | MIC [2, 5]: 8 µg/mL (≈ 10.4 µM); MIC C. difficile (C. difficile 630; C. difficile 630, anaerobic, overnight, growth suppressed to OD600 < 0.15): 1 µg/mL (≈ 1.31 µM)
5 | CC[C@H]1/C=C(\C)[C@@H](O)C/C=C/C=C(\CNc2nc(-c3cccc(OS(=O)(=O)NC)c3)cs2)C(=O)O[C@H]([C@@H](C)O)C/C=C(C)/C=C(\C)[C@@H]1O[C@@H]1OC(C)(C)[C@@H](OC(=O)C(C)C)[C@H](O)[C@@H]1O [compound 34] | 8 (≈ 8.58 µM) | 1 (≈ 1.07 µM) |  | 
6 | CC[C@H]1/C=C(\C)[C@@H](O)C/C=C/C=C(\CNc2nc(-c3cccc(O)c3)cs2)C(=O)O[C@H]([C@@H](C)O)C/C=C(C)/C=C(\C)[C@@H]1O[C@@H]1OC(C)(C)[C@@H](OC(=O)C(C)C)[C@H](O)[C@@H]1O [compound 32] | 4 to 8 (≈ 4.77 to 9.53 µM) | 8 (≈ 9.53 µM) |  | 
7 | CC[C@H]1/C=C(\C)[C@@H](O)C/C=C/C=C(\CNCc2nnc(-c3cccc(O)c3O)o2)C(=O)O[C@H]([C@@H](C)O)C/C=C(C)/C=C(\C)[C@@H]1O[C@@H]1OC(C)(C)[C@@H](OC(=O)C(C)C)[C@H](O)[C@@H]1O [compound 22] |  | 8 (≈ 9.37 µM) | 4 (≈ 4.68 µM) | MIC [2]: 2 µg/mL (≈ 2.34 µM)
8 | CC[C@H]1/C=C(\C)[C@@H](O)C/C=C/C=C(\CNc2nc(-c3cccc(OS(=O)(=O)N(C)C)c3)cs2)C(=O)O[C@H]([C@@H](C)O)C/C=C(C)/C=C(\C)[C@@H]1O[C@@H]1OC(C)(C)[C@@H](OC(=O)C(C)C)[C@H](O)[C@@H]1O [compound 35] | 8 (≈ 8.45 µM) | > 32 |  | 
9 | CC[C@H]1/C=C(\C)[C@@H](O)C/C=C/C=C(\CN2CCN(c3ccccc3)CC2)C(=O)O[C@H]([C@@H](C)O)C/C=C(C)/C=C(\C)[C@@H]1O[C@@H]1OC(C)(C)[C@@H](OC(=O)C(C)C)[C@H](O)[C@@H]1O [compound 2] |  | > 32 | 16 (≈ 19.8 µM) | 
10 | CC[C@H]1/C=C(\C)[C@@H](O)C/C=C/C=C(\CNc2nc3c(s2)CN(C)CC3)C(=O)O[C@H]([C@@H](C)O)C/C=C(C)/C=C(\C)[C@@H]1O[C@@H]1OC(C)(C)[C@@H](OC(=O)C(C)C)[C@H](O)[C@@H]1O [compound 12] |  |  | 32 (≈ 39.2 µM) | 
11 | CC[C@H]1/C=C(\C)[C@@H](O)C/C=C/C=C(\CN2CCN(CCOc3ncccn3)CC2)C(=O)O[C@H]([C@@H](C)O)C/C=C(C)/C=C(\C)[C@@H]1O[C@@H]1OC(C)(C)[C@@H](OC(=O)C(C)C)[C@H](O)[C@@H]1O [compound 4] |  |  | > 64 | 
12 | CC[C@H]1/C=C(\C)[C@@H](O)C/C=C/C=C(\CNCc2nnc(C)o2)C(=O)O[C@H]([C@@H](C)O)C/C=C(C)/C=C(\C)[C@@H]1O[C@@H]1OC(C)(C)[C@@H](OC(=O)C(C)C)[C@H](O)[C@@H]1O [compound 19] |  | 32 (≈ 42.1 µM) | 16 (≈ 21.1 µM) | 
13 | CC[C@H]1/C=C(\C)[C@@H](O)C/C=C/C=C(\CN2CCN(C)CC2)C(=O)O[C@H]([C@@H](C)O)C/C=C(C)/C=C(\C)[C@@H]1O[C@@H]1OC(C)(C)[C@@H](O)[C@H](OC(=O)c2ccn(C)n2)[C@@H]1O [compound 44] | > 64 |  |  | 
14 | CC[C@H]1/C=C(\C)[C@@H](O)C/C=C/C=C(\CNc2nc(-c3cccc(OS(=O)(=O)Oc4ccccc4)c3)cs2)C(=O)O[C@H]([C@@H](C)O)C/C=C(C)/C=C(\C)[C@@H]1O[C@@H]1OC(C)(C)[C@@H](OC(=O)C(C)C)[C@H](O)[C@@H]1O [compound 38] | > 64 | > 32 |  | 
15 | CC[C@H]1/C=C(\C)[C@@H](O)C/C=C/C=C(\CN2CCN(C)CC2)C(=O)O[C@H]([C@@H](C)O)C/C=C(C)/C=C(\C)[C@@H]1O[C@@H]1OC(C)(C)[C@@H](O)[C@H](OC(=O)c2ccnn2C)[C@@H]1O [compound 45] | > 64 |  |  | 
16 | CC[C@H]1/C=C(\C)[C@@H](O)C/C=C/C=C(\CNc2nc3c(s2)CCCC3)C(=O)O[C@H]([C@@H](C)O)C/C=C(C)/C=C(\C)[C@@H]1O[C@@H]1OC(C)(C)[C@@H](OC(=O)C(C)C)[C@H](O)[C@@H]1O [compound 11] |  | 8 to 16 (≈ 9.99 to 20 µM) | 16 (≈ 20 µM) | 

Row | SMILES | IC90 [1, 3] [µg/mL] | MIC (C. difficile 630; [4]) [µg/mL] | IC90 [1] [µg/mL] | other results
17 | CC[C@H]1/C=C(\C)[C@@H](O)C/C=C/C=C(\CN2CCN(C)CC2)C(=O)O[C@H]([C@@H](C)O)C/C=C(C)/C=C(\C)[C@@H]1O[C@@H]1OC(C)(C)[C@@H](O)[C@H](OC(=O)c2ccoc2)[C@@H]1O [compound 41] | > 64 |  |  | 
18 | CC[C@H]1/C=C(\C)[C@@H](O)C/C=C/C=C(\CN2CCN(C)CC2)C(=O)O[C@H]([C@@H](C)O)C/C=C(C)/C=C(\C)[C@@H]1O[C@@H]1OC(C)(C)[C@@H](O)[C@H](OC(=O)c2cnn(C)c2)[C@@H]1O [compound 46] | > 64 |  |  | 
19 | CC[C@H]1/C=C(\C)[C@@H](O)C/C=C/C=C(\CNCc2nnc(-c3cc(Cl)cc(Cl)c3O)o2)C(=O)O[C@H]([C@@H](C)O)C/C=C(C)/C=C(\C)[C@@H]1O[C@@H]1OC(C)(C)[C@@H](OC(=O)C(C)C)[C@H](O)[C@@H]1O [compound 17] |  | 2 (≈ 2.21 µM) | 32 (≈ 35.3 µM) | 
20 | CC[C@H]1/C=C(\C)[C@@H](O)C/C=C/C=C(\CNc2nc(-c3cccc(OS(=O)(=O)N4CCCC4)c3)cs2)C(=O)O[C@H]([C@@H](C)O)C/C=C(C)/C=C(\C)[C@@H]1O[C@@H]1OC(C)(C)[C@@H](OC(=O)C(C)C)[C@H](O)[C@@H]1O [compound 36] | 8 (≈ 8.23 µM) | > 32 |  | 
21 | CC[C@H]1/C=C(\C)[C@@H](O)C/C=C/C=C(\CNc2cccc(CNC(=O)Cc3nnn[nH]3)c2)C(=O)O[C@H]([C@@H](C)O)C/C=C(C)/C=C(\C)[C@@H]1O[C@@H]1OC(C)(C)[C@@H](OC(=O)C(C)C)[C@H](O)[C@@H]1O [compound 29] | 64 (≈ 72.8 µM) | > 32 |  | 
22 | CC[C@H]1/C=C(\C)[C@@H](O)C/C=C/C=C(\CN(C)Cc2nnc(-c3ccccc3)o2)C(=O)O[C@H]([C@@H](C)O)C/C=C(C)/C=C(\C)[C@@H]1O[C@@H]1OC(C)(C)[C@@H](OC(=O)C(C)C)[C@H](O)[C@@H]1O [compound 7] |  | 16 (≈ 19.1 µM) | 8 (≈ 9.57 µM) | MIC [2]: 8 µg/mL (≈ 9.57 µM)
23 | CC[C@H]1/C=C(\C)[C@@H](O)C/C=C/C=C(\CN2CCN(Cc3ccc(F)cc3)CC2)C(=O)O[C@H]([C@@H](C)O)C/C=C(C)/C=C(\C)[C@@H]1O[C@@H]1OC(C)(C)[C@@H](OC(=O)C(C)C)[C@H](O)[C@@H]1O [compound 6] |  | 16 (≈ 19 µM) | 16 (≈ 19 µM) | 
24 | CC[C@H]1/C=C(\C)[C@@H](O)C/C=C/C=C(\CN2CCN(CCCN(C)C)CC2)C(=O)O[C@H]([C@@H](C)O)C/C=C(C)/C=C(\C)[C@@H]1O[C@@H]1OC(C)(C)[C@@H](O)[C@H](OC(=O)c2ccoc2)[C@@H]1O [compound 43] | 32 to 64 (≈ 38 to 76 µM) |  |  | 
25 | CO[C@H]1/C=C/O[C@@]2(C)Oc3c(C)c(O)c4c(O)c(c(/C=N/N5CCN(C)CC5)c(O)c4c3C2=O)NC(=O)/C(C)=C\C=C\[C@H](C)[C@H](O)[C@@H](C)[C@@H](O)[C@@H](C)[C@H](OC(C)=O)[C@@H]1C [Rif, Rifampicin, reference compound] |  |  |  | MIC [2]: < 0.12 µg/mL
26 | CC[C@H]1/C=C(\C)[C@@H](O)C/C=C/C=C(\CNc2nc(-c3cccc(OS(=O)(=O)NCCOC)c3)cs2)C(=O)O[C@H]([C@@H](C)O)C/C=C(C)/C=C(\C)[C@@H]1O[C@@H]1OC(C)(C)[C@@H](OC(=O)C(C)C)[C@H](O)[C@@H]1O [compound 37] | 8 (≈ 8.19 µM) | 2 (≈ 2.05 µM) |  | 
27 | CC[C@H]1/C=C(\C)[C@@H](O)C/C=C/C=C(\CNc2cccc(CNC(=O)c3ccc(O)c(O)c3Cl)c2)C(=O)O[C@H]([C@@H](C)O)C/C=C(C)/C=C(\C)[C@@H]1O[C@@H]1OC(C)(C)[C@@H](OC(=O)C(C)C)[C@H](O)[C@@H]1O [compound 31] | > 64 | 32 (≈ 34.1 µM) |  | 
28 | CC[C@H]1/C=C(\C)[C@@H](O)C/C=C/C=C(\CNc2nc(-c3cccc(OS(=O)(=O)F)c3)cs2)C(=O)O[C@H]([C@@H](C)O)C/C=C(C)/C=C(\C)[C@@H]1O[C@@H]1OC(C)(C)[C@@H](OC(=O)C(C)C)[C@H](O)[C@@H]1O [compound 33] | 8 to 16 (≈ 8.69 to 17.4 µM) |  |  | MIC (C. difficile 630; Clostridioides difficile, 630, read-out: MIC C. difficile): > 32 µg/mL
29 | CC[C@H]1/C=C(\C)[C@@H](O)C/C=C/C=C(\CNc2ccc(C#N)cc2)C(=O)O[C@H]([C@@H](C)O)C/C=C(C)/C=C(\C)[C@@H]1O[C@@H]1OC(C)(C)[C@@H](OC(=O)C(C)C)[C@H](O)[C@@H]1O [compound 24] | 16 (≈ 20.9 µM) | 4 (≈ 5.23 µM) |  | activity against M. tuberculosis (in words) [1]: showed activity; MIC [2, 5]: 16 µg/mL (≈ 20.9 µM)
30 | CC[C@H]1/C=C(\C)[C@@H](O)C/C=C/C=C(\CN2CCCCC2)C(=O)O[C@H]([C@@H](C)O)C/C=C(C)/C=C(\C)[C@@H]1O[C@@H]1OC(C)(C)[C@@H](O)[C@H](OC(=O)c2ccoc2)[C@@H]1O [compound 42] | > 64 |  |  | 
31 | CC[C@H]1/C=C(\C)[C@@H](O)C/C=C/C=C(\CNCc2cc(-c3ccccc3)no2)C(=O)O[C@H]([C@@H](C)O)C/C=C(C)/C=C(\C)[C@@H]1O[C@@H]1OC(C)(C)[C@@H](OC(=O)C(C)C)[C@H](O)[C@@H]1O [compound 15] |  |  | 16 (≈ 19.5 µM) | 
